From patent US12582613B2, “Biomimetic, reactive oxygen species-detonable nanoclusters for antirestenotic therapy” (University of Virginia Patent Foundation, priority 2021, dated 2026)

What was measured:
PDGF-BB-stimulated VSMC = experiment: PDGF-BB-induced VSMC proliferation assay (CellTiter-Glo); assay type: cell-based, Human; conditions: 1 μM RVX equivalent
Description: Cell Culture. Human aortic VSMC and culture media (SmBm-2 basal medium for experimental purposes, and SmGm-2 complete medium for expansion) were purchased from Lonza (Walkersville, MD). Cells between passages 5 and 7 were maintained at 37° C. with 5% CO2 and used for all experiments. As established in previous studies, Accutase (ThermoFisher Scientific, Waltham, MA) instead of Trypsin was used for cell detachment to ensure fast cell adhesion and optimal cell status.
Cell Viability Assay of the Nanoclusters. The cytotoxicity and anti-proliferation of the nanoclusters on VSMC was evaluated by a CellTiter-Glo Luminescent Cell Viability kit according to manufacturer's instructions. VSMC were cultured in 96-well plates ([…] and 8×10^4 cells/well for experiments of proliferation and cytotoxicity, respectively) and grown for overnight. For cytotoxicity study, fresh basal medium (supplemented with 0.5% fetal bovine serum) containing NC with different concentrations were added into the plates. For proliferation study, VSMC were treated with 20 nM PDGF-BB to stimulate ROS and proliferation. […] Following 10 min incubation at room temperature, the 96-well plates were analyzed in a FlexStation 3 Benchtop Multi-Mode Microplate Reader (Molecular Devices, San Jose, California) (250-ms integration).

[1] = in vivo; cited from earlier work
[2] = tested on: balloon-injured carotid arteries; experiment: Morphometric analysis of IH and restenosis in rat carotid artery balloon angioplasty model; conditions: in vivo
Description: Rat Carotid Artery Balloon Angioplasty Model. All animal experiments conform to the protocols approved by the Animal Care and Use Committee (ACUC) of the University of Virginia. All adult male Sprague-Dawley rats (Charles River, weighing 300-350 g) were maintained in a temperature and humidity-controlled SPF level animal facility under a 12 h light-dark cycle. Food and water were available ad libitum. Animals were randomly assigned to each treatment group. The carotid artery balloon injury model was operated as previously described. In brief, after anesthesia with isoflurane (5% for inducing and 2% for maintaining), a mid-line incision in the neck was made, and the carotid arteries and carotid bifurcation were exposed by blunt dissection. The proximal of left carotid artery, inner carotid artery, and external carotid artery were then temporarily ligated with 5-0 nylon suture to avoid excessive blood loss during the surgery. A 1 mm arteriotomy was created on the distal segment of the external carotid arteries. […] Area inside external elastic lamina (EEL area), area inside internal elastic lamina (IEL area), lumen area, intima area (=IEL area—lumen area), and media area (=EEL area—IEL area) were calculated using Image J. Intimal hyperplasia was defined as the ratio of intima area versus media area (Intima-to-media ratio, I/M ratio).

Question: Which results are given for `COc1cc(OC)c2c(=O)[nH]c(-c3cc(C)c(OCCO)c(C)c3)nc2c1` [RVX]?
Answer: effect on VSMC proliferation (PDGF-BB-stimulated VSMC): failed to exert any notable effect; half-life [1]: 1.5 h; intimal hyperplasia, intima-to-media (I/M) ratio [2]: neither free RVX solution nor that delivered through conventional PLGA NP led to any significant changes
